How the values were obtained:
[1] = biological target: T1, hPPARδ (Homo sapiens, UniProt Q03181); test: Transfection assay (luciferase reporter, full-length PPAR plasmid) in CV-1 cells, PPARδ; type: cell-based; settings: 24 hours
T1 sequence (Q03181 1-441): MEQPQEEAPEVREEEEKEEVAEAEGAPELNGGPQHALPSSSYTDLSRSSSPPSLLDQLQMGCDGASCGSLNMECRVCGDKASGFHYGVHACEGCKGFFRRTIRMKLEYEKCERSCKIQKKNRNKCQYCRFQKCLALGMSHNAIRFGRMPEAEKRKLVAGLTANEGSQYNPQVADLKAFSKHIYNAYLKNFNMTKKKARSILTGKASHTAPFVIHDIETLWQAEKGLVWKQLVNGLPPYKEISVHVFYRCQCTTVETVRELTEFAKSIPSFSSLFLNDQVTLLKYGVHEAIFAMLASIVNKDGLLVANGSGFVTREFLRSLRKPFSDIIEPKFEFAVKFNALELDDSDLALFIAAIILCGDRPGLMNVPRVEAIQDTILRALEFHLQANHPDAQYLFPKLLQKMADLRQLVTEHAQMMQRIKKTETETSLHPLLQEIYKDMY
Protocol: (§1) PPARδ activation effect of the compound represented by Chemical Formula I according to the present invention was identified by transfection assay. Further, selectivity test for other PPAR subtypes PPARα and PPARγ, toxicity test by MTT assay, and in vivo activity test through animal experiment were carried out. CV-1 cells were used for transfection assay. The cells were cultured in a 5% CO2 incubator at 37° C., on a 96-well plate using DMEM medium containing 10% FBS, DBS (delipidated) and 1% penicillin/streptomycin. Experiment was performed in four stages of cell inoculation, transfection, treatment with the compound of the present invention, and confirmation of result. The CV-1 cells inoculated onto a 96-well plate at 5,000 cells/well, and transfected 24 hours later. Transfection assay was performed using full-length PPAR plasmid DNA, reporter DNA having luciferase activity and thus capable of identifying PPAR activity, and β-galactosidase DNA which gives information about transfection efficiency. […] After culturing for 24 hours in an incubator, the cells were lysed using lysis buffer, and luciferase and β-galactosidase activity was measured using a luminometer and a microplate reader. The measured luciferase data were corrected using the β-galactosidase data, and were plotted to calculate the EC50 value.

[2] = biological target: T2, hPPARα (Homo sapiens, UniProt Q07869); test: Transfection assay (luciferase reporter, full-length PPAR plasmid) in CV-1 cells, PPARα selectivity; type: cell-based; settings: 24 hours
T2 sequence (Q07869 1-468): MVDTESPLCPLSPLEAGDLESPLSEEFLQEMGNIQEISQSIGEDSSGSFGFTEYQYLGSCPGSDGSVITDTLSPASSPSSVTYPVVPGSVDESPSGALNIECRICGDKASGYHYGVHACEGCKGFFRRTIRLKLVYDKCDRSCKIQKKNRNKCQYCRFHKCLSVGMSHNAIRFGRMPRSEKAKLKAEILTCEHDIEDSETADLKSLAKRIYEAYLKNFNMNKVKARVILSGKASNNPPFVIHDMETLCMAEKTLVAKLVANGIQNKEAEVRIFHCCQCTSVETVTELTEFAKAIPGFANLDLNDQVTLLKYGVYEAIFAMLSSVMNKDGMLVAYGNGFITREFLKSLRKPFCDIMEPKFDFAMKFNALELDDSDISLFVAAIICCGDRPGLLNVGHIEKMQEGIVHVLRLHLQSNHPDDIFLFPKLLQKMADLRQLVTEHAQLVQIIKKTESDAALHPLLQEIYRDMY
Protocol: as §1

[3] = biological target: T3, hPPARγ (Homo sapiens, UniProt P37231); test: Transfection assay (luciferase reporter, full-length PPAR plasmid) in CV-1 cells, PPARγ selectivity; type: cell-based; settings: 24 hours
T3 sequence (P37231 1-505): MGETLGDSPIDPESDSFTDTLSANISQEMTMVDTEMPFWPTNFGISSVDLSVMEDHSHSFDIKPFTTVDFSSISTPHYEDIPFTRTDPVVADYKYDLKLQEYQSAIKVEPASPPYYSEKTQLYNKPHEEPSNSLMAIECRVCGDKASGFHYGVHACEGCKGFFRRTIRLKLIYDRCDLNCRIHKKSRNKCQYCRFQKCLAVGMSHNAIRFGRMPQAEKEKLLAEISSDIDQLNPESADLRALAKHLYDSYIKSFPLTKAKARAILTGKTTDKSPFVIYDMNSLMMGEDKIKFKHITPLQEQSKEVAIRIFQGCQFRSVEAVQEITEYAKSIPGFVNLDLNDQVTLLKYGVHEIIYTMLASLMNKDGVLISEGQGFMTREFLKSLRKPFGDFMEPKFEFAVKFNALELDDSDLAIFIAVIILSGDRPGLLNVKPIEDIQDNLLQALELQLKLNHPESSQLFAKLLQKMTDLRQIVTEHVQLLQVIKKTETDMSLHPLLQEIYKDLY
Protocol: as §1

[4] = Obesity inhibiting effect, high-fat feed mice; type: in vivo, mouse; settings: C57BL/6 mice, 35% fat feed 60 days, 10 mg/kg/day oral
Protocol: In order to test in vivo effect of the compound according to the present invention, experiment was carried out using mouse. 8-week-old C57BL/6 (SLC Co.) mice were used and feed containing 35% fat was used to induce obesity. While giving the high-fat feed for 60days, vehicle, Compound S185 or Compound S186 was orally administered (10 mg/kg/day).

[5] = tested on: ApoE−/− mice; test: Atherosclerosis inhibiting effect, ApoE−/− mice (Sudan IV arterial plaque staining); type: in vivo; settings: ApoE−/− mouse, high-fat high-cholesterol feed, 2 mg/kg/day oral, 28 days
Protocol: (§2) In order to test atherosclerosis inhibiting effect of the compound according to the present invention, in vivo experiment was carried out using atherosclerosis animal model ApoE−/−, Ldlr−/−mice. While giving high-fat, high-cholesterol feed (20% fat, 1.25% cholesterol; AIN-93G diet), the compound of the present invention (Compound S185) was orally administered at 2 mg/kg/day. 28 days later, arterial plaque was stained using Sudan IV, and the atherosclerosis inhibiting effect was compared with the control group.

[6] = tested on: Ldlr−/− mice; test: Atherosclerosis inhibiting effect, Ldlr−/− mice (Sudan IV arterial plaque staining); type: in vivo; settings: Ldlr−/− mouse, high-fat high-cholesterol feed, 2 mg/kg/day oral, 28 days
Protocol: as §2

[7] = Diabetes improving effect, glucose tolerance test (GTT); type: in vivo, mouse; settings: for Fasting glucose level as compared to the control group: 10 mg/kg/day oral for 57 days; for Diabetes improving effect: GTT, overall conclusion
Protocol: In order to test diabetes improving effect of the compound according to the present invention, glucose tolerance test (GTT) was carried out. To a mouse to which the test compound had been orally administered for 57 days, glucose (1.5 g/kg) was abdominally administered and change of blood glucose level was monitored.

[8] = tested on: mouse; test: Muscle endurance test (treadmill) after administration during pregnancy, lactation or both; type: in vivo; settings: for Body weight or growth rate of the fetus, treated versus control group / Type I muscle fiber (ATPase staining and immunostaining): 10 mg/kg/day oral during pregnancy, lactation or both; for Increase compared to control, Distance / Increase compared to control, Time: treadmill, 10 mg/kg/day oral
Protocol: Animal experiment was carried out in order to test muscle endurance strengthening and muscle function improving effect of the compound according to the present invention. Since muscle formation occurs mostly in the developmental stage, Compound S185 or S186 (10 mg/kg/day) was orally administered to a mouse during pregnancy, lactation or both. No difference in body weight or growth rate of the fetus was observed between the control group and the treated group. When the muscle was observed after removing the skin, the muscle of the treated group was redder than the control group. […] In order to confirm the effect of the change in the muscle fiber on improvement of muscle endurance and muscle function, test was performed using a treadmill.

[9] = tested on: C57BL/6 mouse; test: Muscle endurance and muscle function in adult exercising mice (treadmill); type: in vivo; settings: 10-week-old C57BL/6 mouse, 10 mg/kg oral, treadmill exercise 30 days
Protocol: Further, improvement of muscle endurance and muscle function was confirmed when the compound according to the present invention was administered to an adult. 10-week-old C57BL/6 mouse was let to exercise while orally administering Compound S185 or S186 (10 mg/kg). The mouse was let to exercise on a treadmill for 30 days, once a day for 30 minutes. Exercise condition was 5 minutes at 2 m/min, 5 minutes at 5 m/min, 5 minutes at 8 m/min, followed by 5 minutes at 20 m/min. At the end of the test, muscle endurance strengthening and muscle function improving effect was tested using a treadmill.

[10] = tested on: C57BL/6 mouse; test: Memory improving effect, Morris water maze test in LPS brain disease model; type: in vivo
Protocol: Animal (8-week-old C57BL/6 mouse) experiment was carried out in order to test the effect of the compound according to the present invention of treating dementia and Parkinson's disease through improvement of memory. Before performing experiment, an animal model of brain disease was established by injecting LPS into the brain by stereotaxy. Test groups were divided depending on the administration of the test compound and exercise. Exercise condition was 5 minutes at 2 m/min, 5 minutes at 5 m/min, 5 minutes at 8 m/min, followed by 5 minutes at 20 m/min. Morris water maze test was performed at the end of the test. It was confirmed that the compound according to the present invention and exercise are effective in treating dementia and Parkinson's disease through improvement of memory.

[11] = tested on: C57BL/6 mouse; test: Fatty liver treating effect, high-fat feed mice (H&E liver staining); type: in vivo; settings: 35% fat feed 78 days, 10 mg/kg/day oral
Protocol: Animal (8-week-old C57BL/6 mouse) experiment was carried out in order to test fatty liver treating effect of the compound according to the present invention. Feed containing 35% fat was used to induce fatty liver. While giving the high-fat feed for 78 days, Compound S185 was orally administered (10 mg/kg/day). At the end of the experiment, liver tissue was harvested and fixed in paraformaldehyde solution and then stained with hematoxylin and eosin.

[12] = administered during Pregnancy + lactation

## Cc1cc(SCc2[se]c(-c3ccc(C(F)(F)F)cc3)nc2C)ccc1OCC(=O)O [Compound S185]
[1]
  EC50: 0.66 nM
[2]
  EC50 hPPARα: ia
[3]
  EC50 hPPARγ: ia
[4]
  Body weight increase as compared to the vehicle group: 39%
[5]
  Atherosclerosis inhibiting effect improved as compared to the control group: 60%
[6]
  Atherosclerosis inhibiting effect improved: 36%
[7]
  Fasting glucose level as compared to the control group: lower fasting glucose level
  Diabetes improving effect: effective in improving diabetes
[8]
  Body weight or growth rate of the fetus, treated versus control group: No difference
  Type I muscle fiber (ATPase staining and immunostaining): increased type I muscle fiber
[8]; administered during Lactation
  Increase compared to control, Distance: 2.6 times
  Increase compared to control, Time: 2.1 times
[8]; [12]
  Increase compared to control, Distance: 3.9 times
  Increase compared to control, Time: 3.7 times
[8]; administered during Pregnancy
  Increase compared to control, Distance: 2.7 times
  Increase compared to control, Time: 2.3 times
[9]
  Exercise time and distance as compared to the control group: improvement both in exercise time and distance
[10]; Exercise (o)
  Water maze test result: 14 s
[10]; Exercise (x)
  Water maze test result: 20 s
[11]
  Fatty liver treating effect (H&E stained liver tissue, FIG. 1): effective in preventing fatty liver

## Cc1cc([Se]Cc2[se]c(-c3ccc(C(F)(F)F)cc3)nc2C)ccc1OCC(=O)O [Compound S186]
[1]
  EC50: 4.27 nM
[2]
  EC50 hPPARα: ia
[3]
  EC50 hPPARγ: ia
[4]
  Body weight increase as compared to the vehicle group: 42%
[7]
  Fasting glucose level as compared to the control group: lower fasting glucose level
  Diabetes improving effect: effective in improving diabetes
[8]
  Body weight or growth rate of the fetus, treated versus control group: No difference
  Type I muscle fiber (ATPase staining and immunostaining): increased type I muscle fiber
[8]; administered during Lactation
  Increase compared to control, Distance: 2.0 times
  Increase compared to control, Time: 1.8 times
[8]; [12]
  Increase compared to control, Distance: 3.3 times
  Increase compared to control, Time: 3.1 times
[8]; administered during Pregnancy
  Increase compared to control, Distance: 2.1 times
  Increase compared to control, Time: 2.1 times
[9]
  Exercise time and distance as compared to the control group: improvement both in exercise time and distance
[10]; Exercise (o)
  Water maze test result: 16 s
[10]; Exercise (x)
  Water maze test result: 27 s

From patent US20120316346A1, “SELENALZOLE DERIVATIVE HAVING LIGAND WHICH ACTIVATES PEROXISOME PROLIFERATOR ACTIVATED RECEPTOR (PPAR), PREPARING METHOD THEREOF AND USAGE OF THE CHEMICAL COMPOUNDS” (SNU R & DB FOUNDATION, priority 2010, published 2012)
